From the kinase profiling compilation of Christmann-Franck et al. (2016)

How the values were obtained:
Assay in all cases: radiometric filter-binding kinase assay, Kinase HotSpot
Settings in all cases: compound 0.5 µM; ATP 10 µM
SIK2 (human) = SIK2 (human) (UniProt Q9H0K1)
ACVR1B (human) = ACVR1B (human) (UniProt P36896)
TGFBR2 (human) = TGFBR2 (human) (UniProt P37173)
CLK3 (human) = CLK3 (human) (UniProt P49761)
NTRK3 (human) = NTRK3 (human) (UniProt Q16288)
TTK (human) = TTK (human) (UniProt P33981)
MAP3K3 (human) = MAP3K3 (human) (UniProt Q99759)
GRK7 (human) = GRK7 (human) (UniProt Q8WTQ7)
MAP4K2 (human) = MAP4K2 (human) (UniProt Q12851)
RET (human) = RET (human) (UniProt P07949)
PKN2 (human) = PKN2 (human) (UniProt Q16513)
PDGFRB (human) = PDGFRB (human) (UniProt P09619)
CSNK1G2 (human) = CSNK1G2 (human) (UniProt P78368)
MARK1 (human) = MARK1 (human) (UniProt Q9P0L2)
CHUK (human) = CHUK (human) (UniProt O15111)
MAPK13 (human) = MAPK13 (human) (UniProt O15264)
ALK (human) = ALK (human) (UniProt Q9UM73)
Chain of ALK (human) (Q9UM73 whole entry, looked up): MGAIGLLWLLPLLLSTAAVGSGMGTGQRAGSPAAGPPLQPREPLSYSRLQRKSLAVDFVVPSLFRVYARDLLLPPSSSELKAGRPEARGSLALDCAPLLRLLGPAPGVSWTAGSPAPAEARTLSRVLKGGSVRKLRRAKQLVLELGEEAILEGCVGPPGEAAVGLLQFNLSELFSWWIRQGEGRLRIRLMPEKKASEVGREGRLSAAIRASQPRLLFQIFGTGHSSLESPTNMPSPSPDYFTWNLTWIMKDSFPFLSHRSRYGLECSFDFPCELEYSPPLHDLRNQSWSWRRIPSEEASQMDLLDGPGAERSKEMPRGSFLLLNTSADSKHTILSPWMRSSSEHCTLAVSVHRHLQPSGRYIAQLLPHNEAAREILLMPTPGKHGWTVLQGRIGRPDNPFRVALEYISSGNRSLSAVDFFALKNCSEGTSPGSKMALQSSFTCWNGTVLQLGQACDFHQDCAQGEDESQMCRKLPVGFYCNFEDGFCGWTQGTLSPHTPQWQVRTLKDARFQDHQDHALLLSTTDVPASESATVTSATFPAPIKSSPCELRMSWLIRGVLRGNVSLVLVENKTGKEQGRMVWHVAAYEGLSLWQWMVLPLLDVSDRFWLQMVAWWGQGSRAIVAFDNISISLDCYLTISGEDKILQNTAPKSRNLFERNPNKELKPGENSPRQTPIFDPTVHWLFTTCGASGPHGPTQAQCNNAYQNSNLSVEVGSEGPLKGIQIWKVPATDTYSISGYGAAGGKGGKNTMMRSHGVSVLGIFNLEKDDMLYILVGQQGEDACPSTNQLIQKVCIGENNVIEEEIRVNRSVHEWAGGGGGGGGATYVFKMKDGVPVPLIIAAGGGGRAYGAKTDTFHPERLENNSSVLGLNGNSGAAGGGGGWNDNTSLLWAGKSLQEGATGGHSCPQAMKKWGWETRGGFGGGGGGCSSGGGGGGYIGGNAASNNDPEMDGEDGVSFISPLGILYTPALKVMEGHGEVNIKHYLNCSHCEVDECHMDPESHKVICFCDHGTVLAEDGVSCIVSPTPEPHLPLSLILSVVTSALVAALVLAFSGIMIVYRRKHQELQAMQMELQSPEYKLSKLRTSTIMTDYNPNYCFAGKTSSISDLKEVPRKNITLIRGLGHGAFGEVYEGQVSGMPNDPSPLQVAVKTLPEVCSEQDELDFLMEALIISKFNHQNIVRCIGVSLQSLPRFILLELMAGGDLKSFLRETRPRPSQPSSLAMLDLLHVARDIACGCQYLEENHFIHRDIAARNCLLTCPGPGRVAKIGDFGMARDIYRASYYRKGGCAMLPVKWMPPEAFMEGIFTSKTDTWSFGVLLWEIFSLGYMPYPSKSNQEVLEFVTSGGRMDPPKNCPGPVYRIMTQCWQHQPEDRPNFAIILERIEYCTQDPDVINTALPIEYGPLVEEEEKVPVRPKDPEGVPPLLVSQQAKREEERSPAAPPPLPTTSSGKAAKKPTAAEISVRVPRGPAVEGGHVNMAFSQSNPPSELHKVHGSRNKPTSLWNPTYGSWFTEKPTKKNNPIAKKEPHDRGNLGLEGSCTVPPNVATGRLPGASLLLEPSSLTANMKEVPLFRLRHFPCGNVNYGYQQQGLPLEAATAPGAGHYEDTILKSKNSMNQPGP

SLK (human) = SLK (human) (UniProt Q9H2G2)
ROS1 (human) = ROS1 (human) (UniProt P08922)
ZAP70 (human) = ZAP70 (human) (UniProt P43403)
ACVR1 (human) = ACVR1 (human) (UniProt Q04771)
PRKCE (human) = PRKCE (human) (UniProt Q02156)
Chain of PRKCE (human) (Q02156 whole entry, looked up): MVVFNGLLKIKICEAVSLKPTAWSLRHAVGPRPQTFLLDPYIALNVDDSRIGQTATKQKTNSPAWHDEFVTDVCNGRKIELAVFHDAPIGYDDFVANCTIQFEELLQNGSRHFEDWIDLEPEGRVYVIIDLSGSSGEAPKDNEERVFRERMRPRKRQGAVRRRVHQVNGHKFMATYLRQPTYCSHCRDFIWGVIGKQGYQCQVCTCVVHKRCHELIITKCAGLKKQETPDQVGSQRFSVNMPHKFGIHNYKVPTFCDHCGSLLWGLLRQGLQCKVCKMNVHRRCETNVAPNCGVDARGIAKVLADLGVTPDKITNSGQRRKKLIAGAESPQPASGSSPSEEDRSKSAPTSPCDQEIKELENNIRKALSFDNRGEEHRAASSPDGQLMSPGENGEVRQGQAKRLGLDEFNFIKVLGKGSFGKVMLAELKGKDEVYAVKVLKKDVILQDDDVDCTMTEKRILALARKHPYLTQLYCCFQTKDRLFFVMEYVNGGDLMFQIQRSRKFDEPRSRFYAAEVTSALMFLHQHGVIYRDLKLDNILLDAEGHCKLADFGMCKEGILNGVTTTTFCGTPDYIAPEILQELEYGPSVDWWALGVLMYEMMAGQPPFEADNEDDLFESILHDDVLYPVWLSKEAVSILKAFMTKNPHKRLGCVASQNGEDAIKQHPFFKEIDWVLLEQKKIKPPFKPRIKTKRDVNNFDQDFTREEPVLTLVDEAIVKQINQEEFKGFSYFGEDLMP

DYRK3 (human) = DYRK3 (human) (UniProt O43781)
FER (human) = FER (human) (UniProt P16591)
PDGFRA (human) = PDGFRA (human) (UniProt P16234)
CLK2 (human) = CLK2 (human) (UniProt P49760)
MAP2K1 (human) = MAP2K1 (human) (UniProt Q02750)
EPHB3 (human) = EPHB3 (human) (UniProt P54753)
RPS6KA3 KD1 KD2 (human) = RPS6KA3 KD1 KD2 (human) (UniProt P51812)
MINK1 (human) = MINK1 (human) (UniProt Q8N4C8)
NLK (human) = NLK (human) (UniProt Q9UBE8)
ERBB4 (human) = ERBB4 (human) (UniProt Q15303)
CLK1 (human) = CLK1 (human) (UniProt P49759)
NEK1 (human) = NEK1 (human) (UniProt Q96PY6)
Chain of NEK1 (human) (Q96PY6 whole entry, looked up): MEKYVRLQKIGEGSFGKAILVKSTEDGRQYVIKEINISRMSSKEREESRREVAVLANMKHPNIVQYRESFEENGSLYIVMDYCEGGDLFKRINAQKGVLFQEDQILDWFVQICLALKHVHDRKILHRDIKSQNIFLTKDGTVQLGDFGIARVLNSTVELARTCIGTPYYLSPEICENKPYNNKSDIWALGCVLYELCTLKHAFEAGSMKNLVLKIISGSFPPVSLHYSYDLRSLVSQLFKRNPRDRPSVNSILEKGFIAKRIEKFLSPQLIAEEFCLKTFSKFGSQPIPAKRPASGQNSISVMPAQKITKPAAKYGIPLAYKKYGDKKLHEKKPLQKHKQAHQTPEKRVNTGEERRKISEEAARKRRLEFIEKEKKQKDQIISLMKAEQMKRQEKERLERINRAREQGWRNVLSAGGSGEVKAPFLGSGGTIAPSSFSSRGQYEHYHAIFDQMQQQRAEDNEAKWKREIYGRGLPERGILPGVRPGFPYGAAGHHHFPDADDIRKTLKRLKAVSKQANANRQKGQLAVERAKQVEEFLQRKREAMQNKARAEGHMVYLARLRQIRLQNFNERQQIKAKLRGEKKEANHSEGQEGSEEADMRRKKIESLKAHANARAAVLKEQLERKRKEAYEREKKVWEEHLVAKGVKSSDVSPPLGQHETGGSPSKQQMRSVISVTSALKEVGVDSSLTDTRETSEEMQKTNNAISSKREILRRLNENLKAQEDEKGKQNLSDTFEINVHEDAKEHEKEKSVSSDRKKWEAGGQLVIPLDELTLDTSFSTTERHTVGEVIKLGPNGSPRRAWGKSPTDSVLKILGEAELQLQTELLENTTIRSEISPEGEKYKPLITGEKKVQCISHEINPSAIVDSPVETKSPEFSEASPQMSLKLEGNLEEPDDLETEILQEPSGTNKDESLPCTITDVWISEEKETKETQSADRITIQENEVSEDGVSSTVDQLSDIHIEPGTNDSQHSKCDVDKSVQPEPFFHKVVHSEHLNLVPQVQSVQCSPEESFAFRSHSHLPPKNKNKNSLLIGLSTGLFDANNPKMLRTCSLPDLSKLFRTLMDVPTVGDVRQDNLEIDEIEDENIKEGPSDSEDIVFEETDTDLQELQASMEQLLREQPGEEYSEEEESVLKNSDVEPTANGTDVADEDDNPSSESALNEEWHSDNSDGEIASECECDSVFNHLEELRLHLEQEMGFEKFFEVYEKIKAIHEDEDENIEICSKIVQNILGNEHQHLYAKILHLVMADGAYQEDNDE

HIPK4 (human) = HIPK4 (human) (UniProt Q8NE63)
[1] = biological target: JAK1 JH1 catalytic (human) (UniProt P23458)
CDK3 CCNE1 (human) = CDK3 CCNE1 (human) (UniProt Q00526+P24864)
MAP3K8 (human) = MAP3K8 (human) (UniProt P41279)
[2] = biological target: TYK2 JH1 catalytic (human) (UniProt P29597)
PAK3 (human) = PAK3 (human) (UniProt O75914)
KIT (human) = KIT (human) (UniProt P10721)
MAP3K11 (human) = MAP3K11 (human) (UniProt Q16584)

Chain of SIK2 (human) (Q9H0K1 whole entry, looked up): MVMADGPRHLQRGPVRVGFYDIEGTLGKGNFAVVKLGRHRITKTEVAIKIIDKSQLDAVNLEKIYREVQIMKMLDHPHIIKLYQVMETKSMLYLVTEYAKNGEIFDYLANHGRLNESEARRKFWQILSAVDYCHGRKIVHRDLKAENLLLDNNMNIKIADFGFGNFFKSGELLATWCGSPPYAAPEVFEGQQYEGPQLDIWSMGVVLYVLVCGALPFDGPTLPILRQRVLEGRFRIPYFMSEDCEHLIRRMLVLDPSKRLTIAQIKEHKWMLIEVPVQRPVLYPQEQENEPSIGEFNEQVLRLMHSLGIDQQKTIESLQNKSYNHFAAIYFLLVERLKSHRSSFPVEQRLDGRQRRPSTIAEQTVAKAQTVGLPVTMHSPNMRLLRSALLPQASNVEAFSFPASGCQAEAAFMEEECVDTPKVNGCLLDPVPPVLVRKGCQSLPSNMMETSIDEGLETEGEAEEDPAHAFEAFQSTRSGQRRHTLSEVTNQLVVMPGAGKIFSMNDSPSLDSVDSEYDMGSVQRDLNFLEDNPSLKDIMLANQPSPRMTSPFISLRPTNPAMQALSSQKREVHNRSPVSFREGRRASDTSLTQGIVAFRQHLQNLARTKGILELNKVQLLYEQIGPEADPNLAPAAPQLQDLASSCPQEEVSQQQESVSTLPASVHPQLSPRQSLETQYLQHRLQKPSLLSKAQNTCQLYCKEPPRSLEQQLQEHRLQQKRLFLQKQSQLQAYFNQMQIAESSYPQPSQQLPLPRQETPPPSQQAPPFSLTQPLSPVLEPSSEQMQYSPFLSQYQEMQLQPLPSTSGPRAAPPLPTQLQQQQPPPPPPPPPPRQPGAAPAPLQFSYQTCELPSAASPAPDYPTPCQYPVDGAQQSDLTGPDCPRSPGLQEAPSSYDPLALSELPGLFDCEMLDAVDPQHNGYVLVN
Chain of CLK3 (human) (P49761 whole entry, looked up): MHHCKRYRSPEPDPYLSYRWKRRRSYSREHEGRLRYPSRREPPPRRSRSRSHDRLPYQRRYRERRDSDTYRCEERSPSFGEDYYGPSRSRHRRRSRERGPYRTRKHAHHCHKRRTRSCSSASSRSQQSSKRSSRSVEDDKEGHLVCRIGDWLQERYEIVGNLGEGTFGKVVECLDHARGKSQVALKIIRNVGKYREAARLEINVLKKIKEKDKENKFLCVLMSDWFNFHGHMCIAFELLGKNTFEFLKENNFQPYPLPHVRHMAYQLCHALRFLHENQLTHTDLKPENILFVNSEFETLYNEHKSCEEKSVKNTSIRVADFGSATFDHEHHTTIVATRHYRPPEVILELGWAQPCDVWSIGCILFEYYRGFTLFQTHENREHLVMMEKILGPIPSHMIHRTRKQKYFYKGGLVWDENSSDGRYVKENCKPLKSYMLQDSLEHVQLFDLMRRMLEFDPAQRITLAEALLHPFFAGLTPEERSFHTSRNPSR

`O=c1c2ccccc2[nH]c(=S)n1CCN1CCC(=C(c2ccc(F)cc2)c2ccc(F)cc2)CC1` gave a residual activity (SIK2 (human)) of 89.7%, a residual activity (ACVR1B (human)) of 103% and a residual activity (TGFBR2 (human)) of 119%. The residual activity (CLK3 (human)) was 101%, the residual activity (NTRK3 (human)) was 98.9% and the residual activity (TTK (human)) was 96.3%. It also gave a residual activity (MAP3K3 (human)) of 102%, a residual activity (GRK7 (human)) of 111% and a residual activity (MAP4K2 (human)) of 112%. It also gave a residual activity (RET (human)) of 106%, a residual activity (PKN2 (human)) of 97.2% and a residual activity (PDGFRB (human)) of 112%. For the same molecule, the residual activity (CSNK1G2 (human)) was 98.6%, the residual activity (MARK1 (human)) was 99.7% and the residual activity (CHUK (human)) was 95%. For the same molecule, the residual activity (MAPK13 (human)) was 106%, the residual activity (ALK (human)) was 104% and the residual activity (SLK (human)) was 103%. For the same molecule, the residual activity (ROS1 (human)) was 98.8%, the residual activity (ZAP70 (human)) was 98% and the residual activity (ACVR1 (human)) was 107%. It also gave a residual activity (PRKCE (human)) of 100%, a residual activity (DYRK3 (human)) of 101% and a residual activity (FER (human)) of 95.2%. For the same molecule, the residual activity (PDGFRA (human)) was 97%, the residual activity (CLK2 (human)) was 87.8% and the residual activity (MAP2K1 (human)) was 97.5%. It also gave a residual activity (EPHB3 (human)) of 92.8%, a residual activity (RPS6KA3 KD1 KD2 (human)) of 99.8% and a residual activity (MINK1 (human)) of 94.4%. It also gave a residual activity (NLK (human)) of 99.5%, a residual activity (ERBB4 (human)) of 87.4% and a residual activity (CLK1 (human)) of 113%. For the same molecule, the residual activity (NEK1 (human)) was 109%, the residual activity (HIPK4 (human)) was 98.4% and the residual activity [1] was 105%. The residual activity (CDK3 CCNE1 (human)) was 100%, the residual activity (MAP3K8 (human)) was 100% and the residual activity [2] was 107%. It also gave a residual activity (PAK3 (human)) of 94.6%, a residual activity (KIT (human)) of 103% and a residual activity (MAP3K11 (human)) of 95.2%.

Work on `O=C(O)c1ccc2c3c1cccc3c(=O)n1c3ccccc3nc21` yielded a residual activity (SIK2 (human)) of 92.8%, a residual activity (ACVR1B (human)) of 93.5% and a residual activity (TGFBR2 (human)) of 133%. It also gave a residual activity (CLK3 (human)) of 95.4%, a residual activity (NTRK3 (human)) of 67.1% and a residual activity (TTK (human)) of 81%. For the same molecule, the residual activity (MAP3K3 (human)) was 81%, the residual activity (GRK7 (human)) was 102% and the residual activity (MAP4K2 (human)) was 38%. It also gave a residual activity (RET (human)) of 96.8%, a residual activity (PKN2 (human)) of 97.9% and a residual activity (PDGFRB (human)) of 107%. The residual activity (CSNK1G2 (human)) was 93.5%, the residual activity (MARK1 (human)) was 79.5% and the residual activity (CHUK (human)) was 114%. The residual activity (MAPK13 (human)) was 104%, the residual activity (ALK (human)) was 92.7% and the residual activity (SLK (human)) was 94.1%. For the same molecule, the residual activity (ROS1 (human)) was 95.2%, the residual activity (ZAP70 (human)) was 119% and the residual activity (ACVR1 (human)) was 91.1%. For the same molecule, the residual activity (PRKCE (human)) was 113%, the residual activity (DYRK3 (human)) was 92.3% and the residual activity (FER (human)) was 96.5%. For the same molecule, the residual activity (PDGFRA (human)) was 94.4%, the residual activity (CLK2 (human)) was 91% and the residual activity (MAP2K1 (human)) was 93.7%. It also gave a residual activity (EPHB3 (human)) of 94.5%, a residual activity (RPS6KA3 KD1 KD2 (human)) of 95.5% and a residual activity (MINK1 (human)) of 79.8%. The residual activity (NLK (human)) was 96.1%, the residual activity (ERBB4 (human)) was 105% and the residual activity (CLK1 (human)) was 93.8%. It also gave a residual activity (NEK1 (human)) of 87.8%, a residual activity (HIPK4 (human)) of 86.9% and a residual activity [1] of 98.4%. For the same molecule, the residual activity (CDK3 CCNE1 (human)) was 97.9%, the residual activity (MAP3K8 (human)) was 88.3% and the residual activity [2] was 22.8%. For the same molecule, the residual activity (PAK3 (human)) was 97.6%, the residual activity (KIT (human)) was 93.5% and the residual activity (MAP3K11 (human)) was 23.7%.
